Test results: PubChem BioAssay AID294 (DTP/NCI, 2004)
Where “and” joins values, the source holds several entries; their conditions need not be identical. Equal entries are not always repeated.

System: MX-1 breast xenograft, nude mice, tumor weight change
Test: NCI In Vivo Anticancer Drug Screen. Data for tumor model Human Mammary Carcinoma MX-1 Xenograft (subcutaneous) in NU/NU Swiss (nude) mice
Details: endpoint: optimum tumor weight change, higher = larger tumour
Procedure: The antitumor activity of compounds was measured in mice bearing transplantable tumors. Survival or tumor size were measured and the results are expressed as the measurement made in the treated group (T) divided by the measurement made in the vehicle treated control group (C). The tumor model used in this assay is Human Mammary Carcinoma MX-1 Xenograft (subcutaneous) in NU/NU Swiss (nude) mice

[1] = dose: 50.0 mg/kg/injection, schedule: Q04DX003 (ip), vehicle: Klucel (hydroxypropylcellulose) (HPC)
[2] = dose: 100.0 mg/kg/injection, schedule: Q04DX003 (ip), vehicle: Klucel (hydroxypropylcellulose) (HPC)
[3] = dose: 400.0 mg/kg/injection, schedule: Q04DX003 (ip), vehicle: saline with Tween-80
[4] = dose: 800.0 mg/kg/injection, schedule: Q04DX003 (ip), vehicle: saline with Tween-80
[5] = dose: 25.0 mg/kg/injection, schedule: Q04DX003 (ip), vehicle: Klucel (hydroxypropylcellulose) (HPC)

COC1C(C)OC(OC2CC(C)(O)Cc3cc4c(c(O)c32)C(=O)c2c(O)cc3c(c2C4=O)OC2OC3(C)C(O)C(N(C)C)C2O)C(OC)C1(C)OC (centres undefined)
T/C (dose: 5.0 mg/kg/injection, schedule: Q04DX003 (ip), vehicle: Klucel (hydroxypropylcellulose) (HPC)): 204 % of control | T/C (dose: 10.0 mg/kg/injection, schedule: Q04DX003 (ip), vehicle: Klucel (hydroxypropylcellulose) (HPC)): 207 % of control

Cn1cnc([N+](=O)[O-])c1[Se]c1nc(N)nc2nc[nH]c12
T/C (dose: 12.5 mg/kg/injection, schedule: Q04DX003 (ip), vehicle: water): 103 % of control | T/C (dose: 25.0 mg/kg/injection, schedule: Q04DX003 (ip), vehicle: water): 84 % of control | T/C (dose: 50.0 mg/kg/injection, schedule: Q04DX003 (ip), vehicle: water): 60 % of control

COc1cc([C@@H]2c3cc4c(c(O)c3C[C@H]3COC(=O)[C@@H]32)OCO4)cc(OC)c1O
T/C (dose: 3.13 mg/kg/injection, schedule: Q04DX003 (ip), vehicle: saline): 92 % of control | T/C (dose: 6.25 mg/kg/injection, schedule: Q04DX003 (ip), vehicle: saline): 57 % of control

CN(C)c1nc(N(C)C)nc(N(C)C)n1
T/C [1]: 59 % of control | T/C (dose: 60.0 mg/kg/injection, schedule: Q01DX005 (ip), vehicle: Klucel (hydroxypropylcellulose) (HPC)): 15 % of control | T/C (dose: 60.0 mg/kg/injection, schedule: Q07DX005 (ip), vehicle: Klucel (hydroxypropylcellulose) (HPC)): 42 % of control | T/C [2]: 47 % of control | T/C (dose: 120.0 mg/kg/injection, schedule: Q01DX005 (ip), vehicle: Klucel (hydroxypropylcellulose) (HPC)): 1 % of control | T/C (dose: 120.0 mg/kg/injection, schedule: Q04DX005 (ip), vehicle: Klucel (hydroxypropylcellulose) (HPC)): -38 % of control | T/C (dose: 200.0 mg/kg/injection, schedule: Q04DX003 (ip), vehicle: Klucel (hydroxypropylcellulose) (HPC)): 1 % of control | T/C (dose: 240.0 mg/kg/injection, schedule: Q07DX005 (ip), vehicle: Klucel (hydroxypropylcellulose) (HPC)): -99 % of control

C1OC1CN1CCN(CC2CO2)CC1 (centres undefined)
T/C (dose: 12.5 mg/kg/injection, schedule: Q04DX003 (ip), vehicle: saline): 91 % of control | T/C (dose: 25.0 mg/kg/injection, schedule: Q04DX003 (ip), vehicle: saline): 79 % of control

Nc1ccc(Cl)cc1N
T/C [3]: 109 % of control | T/C [4]: 110 % of control | T/C (dose: 1600.0 mg/kg/injection, schedule: Q04DX003 (ip), vehicle: saline with Tween-80): 117 % of control | T/C (dose: 3200.0 mg/kg/injection, schedule: Q04DX003 (ip), vehicle: saline with Tween-80): 80 % of control

OC(C1CO1)C(O)C1CO1 (centres undefined)
T/C (dose: 1.0 mg/kg/injection, schedule: Q04DX003 (ip), vehicle: saline): 70 % of control

CS(=O)(=O)OCCN(CCOS(C)(=O)=O)c1ccc(C=Nc2ccc(-c3csc(COc4ccccc4)n3)cc2)cc1
T/C [5]: 45 % of control | T/C [1]: 64 % of control | T/C [2]: 99 % of control

N=c1ccn2c(n1)OC1C(O)C(CO)OC12 (centres undefined)
T/C (dose: 200.0 mg/kg/injection, schedule: Q04DX003 (ip), vehicle: suspension in saline): 65 % of control | T/C (dose: 400.0 mg/kg/injection, schedule: Q04DX003 (ip), vehicle: suspension in saline): 65 % of control | T/C (dose: 800.0 mg/kg/injection, schedule: Q04DX003 (ip), vehicle: suspension in saline): 47 % of control

Cc1c(N)nc([C@H](CC(N)=O)NC[C@H](N)C(N)=O)nc1C(=O)N[C@H](C(=O)N[C@H](C)[C@@H](O)CC(=O)N[C@H](C(=O)NC(O[C@@H]1O[C@@H](C)[C@@H](N)[C@@H](O)[C@H]1O)C(O)c1nc(-c2nc(C(=O)NCCCCN)cs2)cs1)[C@@H](C)O)[C@@H](O[C@@H]1O[C@@H](CO)[C@@H](O)[C@H](O)[C@@H]1O[C@H]1O[C@H](CO)[C@@H](O)[C@H](OC(N)=O)[C@@H]1O)c1c[nH]cn1 (some centres undefined)
T/C (dose: 2.0 mg/kg/injection, schedule: Q04DX003 (ip), vehicle: saline): 84 % of control | T/C (dose: 4.0 mg/kg/injection, schedule: Q04DX003 (ip), vehicle: saline): 47 % of control | T/C (dose: 8.0 mg/kg/injection, schedule: Q04DX003 (ip), vehicle: saline): 42 % of control | T/C (dose: 32.0 mg/kg/injection, schedule: Q04DX003 (ip), vehicle: saline): 7 % of control and 21 % of control and 29 % of control | T/C (dose: 64.0 mg/kg/injection, schedule: Q04DX003 (ip), vehicle: saline): 32 % of control

NC(=S)N/N=C/c1ccc(O)cn1
T/C (dose: 100.0 mg/kg/injection, schedule: Q04DX003 (ip), vehicle: saline with Tween-80): 81 % of control | T/C (dose: 200.0 mg/kg/injection, schedule: Q04DX003 (ip), vehicle: saline with Tween-80): 46 % of control | T/C [3]: 39 % of control | T/C [4]: 73 % of control

O=C[C@@H](CO)O[C@H](C=O)n1cnc2c(=O)[nH]cnc21
T/C (dose: 400.0 mg/kg/injection, schedule: Q04DX003 (ip), vehicle: saline): 29 % of control

CC1CCC(NC(=O)N(CCCl)N=O)CC1 (centres undefined)
T/C [5]: 50 % of control
